Assay results reported in patent US9661850B2, “Methods of soil pest control” (Syngenta Participations AG, priority 2012, dated 2017).

Experiments:
Format in all cases: in vivo
[1] = tested on: Diabrotica balteata (Corn Rootworm); experiment: Diabrotica balteata seed treatment test, larval mortality; conditions: treated corn seeds, L3 larvae, 6 days incubation
Method: Diabrotica Balteata (Corn Rootworm)
Treated corn seeds are sown in a 350 ml pot filled with soil. Two weeks after sowing corn seedlings are infested with L3 larvae of Diabrotica balteata. After an incubation period of 6 days survived larvae are counted.

[2] = tested on: Diabrotica balteata (Corn Rootworm); experiment: Diabrotica balteata seed treatment, plant damage on maize; conditions: L2 larvae, 6 days after infestation
Method: (§1) Diabrotica Balteata (Corn Rootworm):
(§2) Plastic boxes (17×27×22 cm) are filled with 8 L of drench soil and 6 maize seeds are sown into a furrow. 10 ml of spray solution are applied with a hand sprayer into the furrow on the planted seeds and the furrow is closed afterwards. Two weeks after sowing each box is infested with 15 Diabrotica balteata L2 larvae. 6 days after infestation the plant damage is assessed. Plants are considered as either damaged or healthy. Dead plants, plants with hollow stems or entry holes are considered as damaged. The test is carried out with five replicates (boxes) per treatment. For in-furrow application the control is replicated five times with the application of water.
For the assessment as seed treatment 6 treated seeds are planted 0.5 cm deep into the soil. Exactly the same setup is used as with the in furrow treatment described above except that no spray solution is applied. For seed treatment the control is replicated five times without seed coating.
(§3) As six seeds are used per replicate, the total amount of active ingredient applied in furrow is six times the rate per seed in the seed treatment test.

[3] = tested on: Diabrotica balteata (Corn Rootworm); experiment: Diabrotica balteata in-furrow application, plant damage on maize; conditions: L2 larvae, 6 days after infestation
Method: as §1, §2, §3

[4] = tested on: Agriotes sp. (Wireworms); experiment: Agriotes sp. (wireworms) seed treatment test; conditions: treated corn seeds, 1 mg/seed, 14 days incubation
Method: Treated corn seeds are sown in a 350 ml pot filled with soil. One week after sowing corn seedlings are infested with wireworms. After an incubation period of 14 days healthy and affected larvae (intoxicated, moribund, dead) are counted.

[5] = tested on: Agriotes sp. (Wireworms); experiment: Agriotes sp. (wireworms) drench soil test with maize seedlings; conditions: 14 days after treatment
Method: Plastic beakers are prepared with 100 ml drench soil. Afterwards 12.5 ml compound solution is mixed in each plastic beaker and three maize seedlings are added. At the same day five wireworms are placed into each plastic beaker and these are covered up with a lid. Fourteen days after treatment the number of dead and moribund wireworms are evaluated. Wireworms are assessed as moribund if they were not able to bury into the soil in one hour after having been put onto the soil surface.

| SMILES | % Larval mortality ([1]; 1 mg/seed) | % Larval mortality ([1]; 0.3 mg/seed) | other results |
| --- | --- | --- | --- |
| Cc1cc(C2=NO[C@@](c3cc(Cl)cc(Cl)c3)(C(F)(F)F)C2)ccc1C(=O)N[C@@H]1CON(CC(F)F)C1=O [Compound A14] | 100% |  |  |
| Cc1cc(C2=NCC(c3cc(Cl)cc(Cl)c3)(C(F)(F)F)C2)ccc1C(=O)NC1CON(CC(F)(F)F)C1=O (stereo not drawn) [Compound C1] | 100% |  |  |
| CCN1OCC(NC(=O)c2ccc(C3=NOC(c4cc(C(F)(F)F)c(Cl)c(C(F)(F)F)c4)(C(F)(F)F)C3)cc2C)C1=O (mixture of isomers) [Compound A15] |  | 100% |  |
| CCN1OC[C@@H](NC(=O)c2ccc(C3=NO[C@@](c4cc(Cl)c(F)c(Cl)c4)(C(F)(F)F)C3)cc2C)C1=O [Compound 2] |  |  | Reduction in plant damage compared to control (seed treatment) ([2]; 0.1 mg AI per seed): 35%; Reduction in plant damage compared to control (seed treatment) ([2]; 0.5 mg AI per seed): 75%; Reduction in plant damage compared to control (in-furrow application) ([3]; 0.1 mg AI per seed): 95%; Reduction in plant damage compared to control (in-furrow application) ([3]; 0.5 mg AI per seed): 91% |
| Cc1cc(C2=NOC(c3cc(Cl)cc(Cl)c3)(C(F)(F)F)C2)ccc1C(=O)NC1CON(CC(F)F)C1=O (mixture of isomers) [Compound A6] |  | 87% |  |
| Cc1cc(C2=NOC(c3cc(Cl)c(Cl)c(Cl)c3)(C(F)(F)F)C2)ccc1C(=O)NC1CON(CC(F)(F)F)C1=O (mixture of isomers) [Compound A1] |  | 87% |  |
| CCN1OC[C@@H](NC(=O)c2ccc(C3=NO[C@@](c4cc(Cl)cc(Br)c4)(C(F)(F)F)C3)cc2C)C1=O [Compound A11] | 100% |  |  |
| Cc1cc(C2=NO[C@@](c3cc(Cl)c(Cl)c(Cl)c3)(C(F)(F)F)C2)ccc1C(=O)N[C@@H]1CON(CC(F)(F)F)C1=O [Compound A21] | 100% |  |  |
| CCN1OCC(NC(=O)c2ccc(C3=NOC(c4cc(F)cc(Cl)c4)(C(F)(F)F)C3)cc2C)C1=O (mixture of isomers) [Compound A22] | 92% |  |  |
| CCN1OC[C@@H](NC(=O)c2ccc(C3=NO[C@@](c4cc(Cl)c(F)c(Cl)c4)(C(F)(F)F)C3)cc2C)C1=O [Compound A18] |  | 96% |  |
| CCN1OC[C@@H](NC(=O)c2ccc(C3=NO[C@@](c4cc(Cl)cc(C(F)(F)F)c4)(C(F)(F)F)C3)cc2C)C1=O [Compound A12] |  | 88% |  |
| Cc1cc(C2=NO[C@@](c3cc(Cl)cc(Cl)c3)(C(F)(F)F)C2)ccc1C(=O)N[C@@H]1CON(CC(F)(F)F)C1=O [Compound 1] |  |  | Reduction in plant damage compared to control (seed treatment) ([2]; 0.1 mg AI per seed): 25%; Reduction in plant damage compared to control (seed treatment) ([2]; 0.5 mg AI per seed): 50%; Reduction in plant damage compared to control (in-furrow application) ([3]; 0.1 mg AI per seed): 67%; Reduction in plant damage compared to control (in-furrow application) ([3]; 0.5 mg AI per seed): 95% |
| CCN1OC[C@@H](NC(=O)c2ccc(C3=NO[C@@](c4cc(Cl)c(Cl)c(Cl)c4)(C(F)(F)F)C3)cc2C)C1=O [Compound A19] | 100% |  |  |
| CCN1OCC(NC(=O)c2ccc(C3=NOC(c4cc(Cl)c(Cl)c(Cl)c4)(C(F)(F)F)C3)cc2C)C1=O (mixture of isomers) [Compound A23] | 100% |  |  |
| CCN1OCC(NC(=O)c2ccc(C3=NOC(c4cc(Cl)c(F)c(Cl)c4)(C(F)(F)F)C3)cc2C)C1=O (mixture of isomers) [Compound A5] |  | 96% |  |
| Cc1cc(C2=NO[C@@](c3cc(Cl)cc(Cl)c3)(C(F)(F)F)C2)ccc1C(=O)N[C@@H]1CON(CC(F)(F)F)C1=O [Compound A16] | 100% |  | % Mortality and moribund/intoxicated [4]: 100%; % Moribund & dead ([5]; application rate 0.8 ppm): 100%; % Moribund & dead ([5]; application rate 3 ppm): 100%; % Moribund & dead ([5]; application rate 12.5 ppm): 100% |
| CCN1OCC(NC(=O)c2ccc(C3=NCC(c4cc(Cl)cc(Cl)c4)(C(F)(F)F)C3)cc2C)C1=O (stereo not drawn) [Compound C2] | 50% |  |  |
| CCN1OCC(NC(=O)c2ccc(C3=NOC(c4cc(Cl)cc(Cl)c4)(C(F)(F)F)C3)cc2C)C1=O (mixture of isomers) [Compound A9] |  |  | % Mortality and moribund/intoxicated [4]: 25%; % Moribund & dead ([5]; application rate 0.8 ppm): 50%; % Moribund & dead ([5]; application rate 3 ppm): 75%; % Moribund & dead ([5]; application rate 12.5 ppm): 100% |
| Cc1cc(N2CCC(c3cc(Cl)cc(Cl)c3)(C(F)(F)F)C2)ccc1C(=O)NC1CON(CC(F)(F)F)C1=O (racemic) [Compound D1] |  | 83% |  |
| CCN1OCC(NC(=O)c2ccc(C3=NCC(c4cc(Cl)c(Cl)c(Cl)c4)(C(F)(F)F)C3)cc2C)C1=O (racemic) [Compound C3] | 100% |  |  |
| Cc1cc(C2=NOC(c3cc(Cl)cc(Cl)c3)(C(F)(F)F)C2)ccc1C(=O)NC1CON(CC(F)(F)F)C1=O (mixture of isomers) [Compound A8] |  | 79% | % Mortality and moribund/intoxicated [4]: 100% |
| CCN1OC[C@@H](NC(=O)c2ccc(C3=NO[C@@](c4cc(Cl)cc(Cl)c4)(C(F)(F)F)C3)cc2C)C1=O [Compound A17] | 83% |  | % Mortality and moribund/intoxicated [4]: 80%; % Moribund & dead ([5]; application rate 0.8 ppm): 100%; % Moribund & dead ([5]; application rate 3 ppm): 100%; % Moribund & dead ([5]; application rate 12.5 ppm): 100% |
| Cc1cc(C2=NOC(c3cc(Cl)cc(Cl)c3)(C(F)(F)F)C2)ccc1C(=O)NC1CON(C)C1=O (mixture of isomers) [Compound A2] |  | 96% |  |
| Cc1cc(C2=NO[C@@](c3cc(Cl)c(F)c(Cl)c3)(C(F)(F)F)C2)ccc1C(=O)N[C@@H]1CON(CC(F)(F)F)C1=O [Compound A20] | 100% |  |  |
